Measurements: patent US10251874B2, “Crystalline forms of a JAK inhibitor compound” (THERAVANCE BIOPHARMA R&D IP, LLC, priority 2017, dated 2019)

System: IL-27 induced CXCL9 secretion in EpiAirway tissue cultures
Assay: Assay 15: IL-27 induced CXCL9 in human 3D airway cultures
Format: cell-based
Details: 192 h, Day 8, average from 3 or 4 donors, read-out: % inhibition of IL-27 induced CXCL9 secretion (±STDV)
Protocol: EpiAirway tissue cultures were obtained from Mattek (AIR-100). Cultures were derived from asthmatic donors. In a cell culture insert, human derived tracheal/bronchial epithelial cells were grown and differentiated on a porous membrane support, allowing an air-liquid interface with warmed culture medium below the cells and a gaseous test atmosphere above. Tissues were cultured in maintenance media (Mattek, AIR-100-MM) in a 37° C., 5% CO2 humidified incubator. Four donors were tested. On Day 0, tissue cultures were treated with test compounds at 10 μM, 1 μM and/or 0.1 μM. Compounds were diluted in dimethyl sulfoxide (DMSO, Sigma) to a final concentration of 0.1%. DMSO at 0.1% was used as a vehicle control. Test compounds were incubated with cultures for 1 hour at 37° C., 5% CO2, followed by the addition of pre-warmed media containing IFNγ (R&D Systems) or IL-27 (R&D Systems) at a final concentration at 100 ng/ml. Tissue cultures were maintained for 8 days. Media was replaced every 2 days with fresh media containing compounds and IFNγ or IL-27. On Day 8, tissue cultures and supernatants were collected for analysis. Supernatant samples were assayed for CXCL10 (IP-10) and CXCL9 (MIG) using luminex analysis (EMD Millipore). Data is expressed as % Inhibition +/−standard deviation (±STDV). Percent inhibition was determined by compound inhibitory potency against IFNγ or IL-27 induced CXCL10 or CXCL9 secretion compared to vehicle treated cells. Data is the average from 3 or 4 donors. Compound 1 was able to inhibit IFNγ induced CXCL10 secretion by 99%±2.0 (at 10 μM), 71%±19 (at […]) and 17%±12 (at 0.1 μM) when compared to vehicle control. Compound 1 was able to inhibit IFNγ induced CXCL9 secretion by 100%±0.3 (at 10 μM), 99%±0.9 (at 1 μM) and 74%±17 (at 0.1 μM) when compared to vehicle. […] Compound 1 was able to inhibit IL-27 induced CXCL9 secretion by 100%±0 (at 10 μM), 95%±3.7 (at 1 μM) and 75%±3.5 (at 0.1 μM) when compared to vehicle control.

Q: What does the source list for `CCc1cc(O)c(F)cc1-c1ccc2c(-c3nc4c([nH]3)CCN(C3CCN(C)CC3)C4)n[nH]c2c1` [Compound 1, 5-ethyl-2-fluoro-4-(3-(5-(1-methylpiperidin-4-yl)-4,5,6,7-tetrahydro-1H-imidazo[4,5-c]pyridin-2-yl)-1H-indazol-6-yl)phenol]?
A: inhibition at 0.1 µM (at 0.1 μM): 75%; inhibition at 1 µM (at 1 μM): 95%; inhibition at 10 µM (at 10 μM): 100%
